According to ChEMBL document CHEMBL1201862, “PubChem BioAssay data set” (2004):
Where a name gives a salt, the structure may show the parent alone.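 Protocol summary: plate cells (96-well), add compound at 5 concentrations, incubate 48 h, interpolate endpoints linearly. The concentration for 50% growth inhibition is given as GI50.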 The source made the active and inactive calls. Cut-off read from the data, not from the text of the source: active = GI50 up to about 1.1 µM and inactive = higher.

Legend:
Experiment in all cases: NCI tumour cell line growth inhibition, 48 h
RXF 631 = test system: RXF 631
DLD-1 = test system: DLD-1
DMS-273 = test system: DMS-273
HOP-18 = test system: HOP-18
KM-20L2 = test system: KM-20L2
SNB-78 = test system: SNB-78
DMS-114 = test system: DMS-114
LXFL 529 = test system: LXFL 529
XF498 = test system: XF498

Row | SMILES | GI50 (RXF 631) | GI50 (DLD-1) | GI50 (DMS-273) | GI50 (HOP-18) | GI50 (KM-20L2) | GI50 (SNB-78) | GI50 (DMS-114) | GI50 (LXFL 529) | GI50 (XF498)
1 | Cc1nc(-n2nc(-c3ccccc3)cc2-c2ccccc2)sc1C(=O)/C=C/c1ccccc1 | > 100 µM (inactive) | > 100 µM (inactive) | > 100 µM (inactive) | > 100 µM (inactive) | > 100 µM (inactive) | > 100 µM (inactive) | – | – | –
2 | CCN(CC)CCNC(=O)c1cccc2cc3ccccc3nc12 | 4.6 µM (inactive) | 3.57 µM (inactive) | 3.95 µM (inactive) | 15.8 µM (inactive) | – | 7.69 µM (inactive) | 5.89 µM (inactive) | – | –
3 | Cc1n(CC(C)C)c2c([n+]1C)C(=O)c1ccccc1C2=O | – | 0.0813 µM (active) | < 0.0484 µM (active) | 0.565 µM (active) | 0.0383 µM (active) | 0.403 µM (active) | < 0.0161 µM (active) | < 0.0375 µM (active) | 0.252 µM (active)
4 | NNC(=O)C(=O)N/N=C(\CCCC(=O)Nc1ccc(Cl)cc1)CC(=O)c1ccc(F)cc1 | > 100 µM (inactive) | > 100 µM (inactive) | – | 52.8 µM (inactive) | 7.31 µM (inactive) | > 100 µM (inactive) | > 100 µM (inactive) | 67.1 µM (inactive) | > 100 µM (inactive)
5 | O=C(Nc1ccc([N+](=O)[O-])cc1)C1C(=O)C(=O)N(c2ccc([N+](=O)[O-])cc2)C1=O (stereo unspecified) | > 100 µM (inactive) | > 100 µM (inactive) | 11.6 µM (inactive) | > 100 µM (inactive) | 97.3 µM (inactive) | > 100 µM (inactive) | 17.1 µM (inactive) | 17.7 µM (inactive) | –
6 | CC1CCC(=O)NCCCCC(=O)N1 (stereo unspecified) | – | > 100 µM (inactive) | > 100 µM (inactive) | – | > 100 µM (inactive) | > 100 µM (inactive) | > 100 µM (inactive) | > 100 µM (inactive) | –
7 | CCOC(=O)c1cc2c(nc1N)-c1ncccc1CC2 | > 100 µM (inactive) | 52.7 µM (inactive) | 43.5 µM (inactive) | > 100 µM (inactive) | 37.2 µM (inactive) | > 100 µM (inactive) | 8.95 µM (inactive) | 50.7 µM (inactive) | –
8 | O=C(c1ccc(F)cc1)c1cccc(C(=O)c2ccc(F)cc2)n1 | – | > 100 µM (inactive) | 26.3 µM (inactive) | 53.2 µM (inactive) | > 100 µM (inactive) | 17.7 µM (inactive) | 23.9 µM (inactive) | > 79.1 µM (inactive) | 20.9 µM (inactive)
9 | O=C(c1cc2ccccc2o1)N(Cc1ccccc1)c1ccccc1 | 26.9 µM (inactive) | 22.8 µM (inactive) | 30.8 µM (inactive) | 30.5 µM (inactive) | 17.3 µM (inactive) | 63.1 µM (inactive) | 19.3 µM (inactive) | 30.8 µM (inactive) | 23.3 µM (inactive)
10 | NC(=O)N/N=C(\Cc1nc2ccc(C(=O)c3ccccc3)cc2nc1O)C(=O)Nc1ccc(Br)cc1 | – | > 100 µM (inactive) | > 100 µM (inactive) | > 100 µM (inactive) | > 100 µM (inactive) | > 100 µM (inactive) | > 100 µM (inactive) | > 100 µM (inactive) | > 100 µM (inactive)
11 | O=C1C(Br)=CC2(C=C1Br)CCNC1=C2C2=NCCc3c[nH]c(c32)C1=O | – | 0.0182 µM (active) | 0.158 µM (active) | 1.98 µM (inactive) | 0.084 µM (active) | 0.2 µM (active) | 0.0401 µM (active) | – | 0.188 µM (active)
12 | COC(=O)CCC(=O)Nc1cc(C)ccc1C | > 100 µM (inactive) | > 100 µM (inactive) | > 100 µM (inactive) | > 100 µM (inactive) | – | > 100 µM (inactive) | > 100 µM (inactive) | > 100 µM (inactive) | > 100 µM (inactive)
13 | O=C(CC1C(=O)Nc2ccccc2[S+]1[O-])Nc1cc(Cl)ccc1Cl (stereo unspecified) | > 100 µM (inactive) | > 100 µM (inactive) | > 100 µM (inactive) | – | > 100 µM (inactive) | > 100 µM (inactive) | > 100 µM (inactive) | > 100 µM (inactive) | > 100 µM (inactive)
14 | CCc1cccc(C)c1NC(=O)CCc1nnc(S)[nH]1 | – | > 100 µM (inactive) | – | > 100 µM (inactive) | > 100 µM (inactive) | > 100 µM (inactive) | > 100 µM (inactive) | > 100 µM (inactive) | > 100 µM (inactive)
15 | C/C(=N\NS(=O)(=O)c1ccc(C)cc1)C(CN(C)C)C(c1ccccc1)c1c(O)c2ccccc2oc1=O (stereo unspecified) | > 100 µM (inactive) | > 100 µM (inactive) | – | > 100 µM (inactive) | > 100 µM (inactive) | > 100 µM (inactive) | – | > 100 µM (inactive) | > 100 µM (inactive)
16 | COc1cccc(NC(=S)Nn2c(C)nc3ccccc3c2=O)c1 | – | > 100 µM (inactive) | > 100 µM (inactive) | 83.6 µM (inactive) | – | – | > 100 µM (inactive) | > 100 µM (inactive) | –
17 | CC(C)c1cccc(C(C)C)c1NC(=O)C(=O)C(C(=O)c1ccccc1-c1ccccc1)C1OC(=O)c2ccccc21 (stereo unspecified) | – | – | 22.9 µM (inactive) | – | 21.5 µM (inactive) | 21.9 µM (inactive) | 17.7 µM (inactive) | 17.7 µM (inactive) | 13.3 µM (inactive)
18 | CC(=O)CCCCCCCCCCCC[C@@H]1CC[C@H](C)[C@H](O)N1 | – | > 100 µM (inactive) | > 100 µM (inactive) | > 100 µM (inactive) | 65.2 µM (inactive) | > 100 µM (inactive) | > 100 µM (inactive) | > 100 µM (inactive) | > 100 µM (inactive)
19 | CCCCNC1=C(C(=O)OCC)/C(=N/NC(=O)c2ccccc2O)CO1 | – | 18.2 µM (inactive) | – | 62.2 µM (inactive) | > 100 µM (inactive) | 6.93 µM (inactive) | 36.7 µM (inactive) | 38 µM (inactive) | > 100 µM (inactive)
20 | O=C(O)c1c[nH]cc1C(=O)O | – | > 100 µM (inactive) | > 100 µM (inactive) | – | > 100 µM (inactive) | > 100 µM (inactive) | > 100 µM (inactive) | > 100 µM (inactive) | > 100 µM (inactive)
21 | CN1CCCNCCN(CCc2ccccn2)CCCN(C)CC1 | > 100 µM (inactive) | > 88.1 µM (inactive) | 27.8 µM (inactive) | > 100 µM (inactive) | > 100 µM (inactive) | > 100 µM (inactive) | > 42.6 µM (inactive) | > 75.3 µM (inactive) | > 100 µM (inactive)
22 | Cc1ccc(C(=O)N2CCCCC2)cc1/N=N/N(C)C | – | > 100 µM (inactive) | > 100 µM (inactive) | – | – | – | > 100 µM (inactive) | > 100 µM (inactive) | –
24 | CC1CC(=O)CC[C@@H]1OCc1ccccc1 (stereo partly specified) | – | > 100 µM (inactive) | > 100 µM (inactive) | > 100 µM (inactive) | > 100 µM (inactive) | > 100 µM (inactive) | 94.2 µM (inactive) | – | > 100 µM (inactive)
25 | Cc1cc2c(=O)n(-c3ccc(F)cc3)c(C)nc2c(C(=O)O)c1C | – | > 100 µM (inactive) | > 100 µM (inactive) | > 100 µM (inactive) | > 100 µM (inactive) | > 100 µM (inactive) | > 100 µM (inactive) | > 100 µM (inactive) | –
26 | CCN(CCCl)CCNc1c2ccccc2nc2ccc(OC)cc12 | 0.425 µM (active) | 0.46 µM (active) | 0.294 µM (active) | 2.7 µM (inactive) | 0.448 µM (active) | 0.891 µM (active) | 0.675 µM (active) | 0.237 µM (active) | 0.891 µM (active)
27 | CC(=O)N(C)c1ccc(Nc2cc(C)nc3ccc4nc[nH]c4c23)cc1 [ACODAZOLE HYDROCHLORIDE] | – | 19.4 µM (inactive) | 9.38 µM (inactive) | 12.4 µM (inactive) | 11.9 µM (inactive) | 14.4 µM (inactive) | 7.08 µM (inactive) | – | 2.29 µM (inactive)
28 | OC[C@H]1O[C@@H](n2cnc3c(S)ncnc32)[C@H](O)[C@@H]1O [THIOINOSINE] | – | – | 971 µM (inactive) | 2070 µM (inactive) | > 2500 µM (inactive) | > 2500 µM (inactive) | 1830 µM (inactive) | – | > 1260 µM (inactive)
